{
  "source": "patent US6132750A",
  "about": "(Coletica, priority 1998, dated 2000)",
  "assay": "Inhibition of the Fe2+ induced radical degradation of hyaluronic acid (viscosity drop)",
  "conditions": "for Index of protection (%): hyaluronic acid 10 g/l, Fe2+ 620 ppm; for effect on the depolymerisation (radical cleavage) of hyaluronic acid in the presence of iron: in words",
  "procedure": "The chelating microspheres prepared according to I2 are used to evaluate their capacity, via the trapping of ferrous iron Fe2+, to inhibit the radical degradation of hyaluronic acid, glycosarinoglycan implied in the moisturisation of the human dermis, which is therefore a particularly important target to protect in cosmetic and dermo-pharmaceutical applications.\nA 10 g/l solution of hyaluronic acid of high molecular weight (>1,000,000g/mol or Daltons) is prepared in demineralised water. To this solution is added an amount of Fe2+ of 620 ppm.\nOther chelating agents which are conventionally used in cosmetics were used and compared to the chelating microspheres, for their capacity to reduce the radical degradation of hyaluronic acid. Indices of protection, expressed in % of protection, are calculated by carrying out a ratio of the drop in viscosity observed by the presence of iron Fe2+ (620 ppm) in the presence of the chelating agent studied, and the drop in viscosity observed with and without iron Fe2+.",
  "data": [
    {"compound": "O/N=C(/C(=N/O)c1ccco1)c1ccco1", "note": "[2-furyldioxime]", "values": [
      {"measurement": "Index of protection (%)", "setting": "concentration used 1.56 g/l", "result": 23.5, "unit": "%"},
      {"measurement": "Index of protection (%)", "setting": "concentration used 9.37 g/l", "result": 50, "unit": "%"}
    ]},
    {"compound": "O=C(O)CN(CCN(CC(=O)O)CC(=O)O)CC(=O)O", "note": "[EDTA]", "values": [
      {"measurement": "effect on the depolymerisation (radical cleavage) of hyaluronic acid in the presence of iron", "result": "accelerated"}
    ]},
    {"compound": "NO", "note": "[Hydroxylamine]", "values": [
      {"measurement": "Index of protection (%)", "setting": "concentration used 6.25 g/l", "result": 0, "unit": "%"}
    ]},
    {"compound": "Transferrin", "values": [
      {"measurement": "Index of protection (%)", "setting": "concentration used 125 mg/l", "result": 8.7, "unit": "%"},
      {"measurement": "effect on the depolymerisation (radical cleavage) of hyaluronic acid in the presence of iron", "result": "accelerated"}
    ]}
  ]
}
